From patent US12139492B2 (Endotarget Inc., priority 2021, dated 2024) come the findings set out here.

Test [1] has as its target BTK (Homo sapiens, UniProt Q06187). The test can be described thus: Degradation of BTK protein in Namalwa cells (Western blot; DC50, Dmax). The following applies: for DC50: read-out: DC50 (BTK degradation), concentration giving 50% reduction of BTK expression level, cell line not given; for Dmax: read-out: Dmax (BTK degradation); for degradation of BTK protein: Namalwa B lymphocyte cells, various concentrations, 24 hours, Western blot. (In general: A western blot detects proteins with antibodies after separation by electrophoresis.)

Test [2] has as its system Mino cells. The test can be described thus: Antiproliferative effect, MTS cell viability assay, Mino cells. Type of test: cell-based. The following applies: Homo sapiens, Mino mantle cell lymphoma cells, read-out: IC50 (anti-proliferation) Mino cells. Summed up: (§1)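 Steps: seed B-cell lymphoma line; add compound at 0, 0.001, 0.01, 0.1, 1 or 10 μM; incubate 72 h; add MTS and read reduced tetrazolium (formazan) absorbance at 490 nm.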
(In general: Formazan colour is commonly taken as a measure of viable cells.)

Test [3] relates to JeKo-1 cells. The test can be described thus: Antiproliferative effect, MTS cell viability assay, JeKo-1 cells. It is filed as cell-based. The following applies: Homo sapiens; JeKo-1 mantle cell lymphoma cells; read-out: IC50 (anti-proliferation) JeKO-1 cells. Summed up: as §1

Molecules are shown by their SMILES. pIC50: −log10 of the molar value. Where two headings read alike, the source gives them in different places.

BTK, sequence (Q06187 whole entry): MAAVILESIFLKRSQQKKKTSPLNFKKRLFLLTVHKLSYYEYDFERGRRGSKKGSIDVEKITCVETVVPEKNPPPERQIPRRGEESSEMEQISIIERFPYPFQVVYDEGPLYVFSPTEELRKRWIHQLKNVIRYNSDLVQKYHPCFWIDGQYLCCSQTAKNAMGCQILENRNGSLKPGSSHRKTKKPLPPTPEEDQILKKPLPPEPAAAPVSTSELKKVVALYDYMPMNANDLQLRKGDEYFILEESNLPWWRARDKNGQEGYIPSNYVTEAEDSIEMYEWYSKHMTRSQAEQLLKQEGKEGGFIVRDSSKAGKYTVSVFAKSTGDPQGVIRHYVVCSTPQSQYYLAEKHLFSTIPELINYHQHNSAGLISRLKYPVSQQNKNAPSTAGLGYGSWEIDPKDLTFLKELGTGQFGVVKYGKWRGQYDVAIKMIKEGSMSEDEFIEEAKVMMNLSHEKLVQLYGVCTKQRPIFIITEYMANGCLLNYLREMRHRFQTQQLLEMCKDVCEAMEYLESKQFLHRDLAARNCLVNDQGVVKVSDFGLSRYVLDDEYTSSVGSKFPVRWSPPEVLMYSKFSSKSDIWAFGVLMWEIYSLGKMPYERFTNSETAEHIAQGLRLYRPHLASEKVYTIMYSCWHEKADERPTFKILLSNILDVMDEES

Broadly, the DC50 is the concentration at which degradation of the target reaches its halfway point. Broadly, the Dmax is the greatest extent of degradation seen. With `Nc1ncnc2c1c(-c1ccc(Oc3ccccc3)cc1)nn2C1CCN(CC2CN(CC3CCN(c4ccc5c(c4)CN(C4CCC(=O)NC4=O)C5=O)CC3)C2)CC1` (stereo not drawn) [Compound 440], in test [1], the DC50 was under 10 nM and the Dmax was over 90%. Also, the pIC50 in test [2] (MINO) is over 6.00. In addition, in test [3], the pIC50 is 5.00 to 6.00.

`Nc1ncnc2c1c(-c1ccc(Oc3ccccc3)cc1)nn2C1CCN(CC2CN(CC3CN(c4ccc5c(c4)C(=O)N(C4CCC(=O)NC4=O)C5=O)C3)C2)CC1` (stereo not drawn) [Compound 441, 5-(3-((3-((4-(4-amino-3-(4-phenoxyphenyl)-1H-pyrazolo(3,4-d)pyrimidin-1-yl)piperidin-1-yl)methyl)azetidin-1-yl)methyl)azetidin-1-yl)-2-(2,6-dioxopiperidin-3-yl)isoindoline-1,3-dione]: in test [1], the “degradation of BTK protein” value is recorded as “dose-dependent degradation” and the Dmax is under 50%. Besides, in test [2] (MINO), the pIC50 is under 5.00. The pIC50 in test [3] was under 5.00.

Consider `Nc1ncnc2c1c(-c1ccc(Oc3ccccc3)cc1)nn2C1CCN(CC2CN(CC3CN(c4ccc5c(c4)CN(C4CCC(=O)NC4=O)C5=O)C3)C2)CC1` (stereo not drawn) [Compound 442, 3-(5-(3-((3-((4-(4-amino-3-(4-phenoxyphenyl)-1H-pyrazolo[3,4-d]pyrimidin-1-yl)piperidin-1-yl)methyl)azetidin-1-yl)methyl)azetidin-1-yl)-1-oxoisoindolin-2-yl)piperidine-2,6-dione], for which the Dmax in test [1] is under 50%. The pIC50 in test [2] (MINO) and in test [3] was under 5.00 each time.

As to `Nc1ncnc2c1c(-c1ccc(Oc3ccccc3)cc1)nn2C1CCN(CC2CN(CC3CCN(c4ccc5c(c4)C(=O)N(C4CCC(=O)NC4=O)C5=O)C3)C2)CC1` (stereo not drawn) [Compound 443, 5-(3-((3-((4-(4-amino-3-(4-phenoxyphenyl)-1H-pyrazolo(3,4-d)pyrimidin-1-yl)piperidin-1-yl)methyl)azetidin-1-yl)methyl)pyrrolidin-1-yl)-2-(2,6-dioxopiperidin-3-yl)isoindoline-1,3-dione], in test [1], the “degradation of BTK protein” value is “dose-dependent degradation”, the DC50 is under 10 nM and the Dmax is over 90%. Besides, the pIC50 in test [2] (MINO) is over 6.00. Besides, the pIC50 in test [3] is over 6.00.

Consider `Nc1ncnc2c1c(-c1ccc(Oc3ccccc3)cc1)nn2C1CCN(CC2CN(C[C@H]3CCN(c4ccc5c(c4)C(=O)N(C4CCC(=O)NC4=O)C5=O)C3)C2)CC1` (stereo partly drawn) [Compound 443a, 5-((R)-3-((3-((4-(4-amino-3-(4-phenoxyphenyl)-1H-pyrazolo[3,4-d]pyrimidin-1-yl)piperidin-1-yl)methyl)azetidin-1-yl)methyl)pyrrolidin-1-yl)-2-(2,6-dioxopiperidin-3-yl)isoindoline-1,3-dione], for which, in test [1], the 50% degradation concentration (DC50) is under 10 nM and the Dmax was over 90%. The pIC50 in test [2] (MINO) is over 6.00. Further, the pIC50 in test [3] was over 6.00.

`Nc1ncnc2c1c(-c1ccc(Oc3ccccc3)cc1)nn2C1CCN(CC2CN(C[C@@H]3CCN(c4ccc5c(c4)C(=O)N(C4CCC(=O)NC4=O)C5=O)C3)C2)CC1` (stereo partly drawn) [Compound 443b, 5-((S)-3-((3-((4-(4-amino-3-(4-phenoxyphenyl)-1H-pyrazolo[3,4-d]pyrimidin-1-yl)piperidin-1-yl)methyl)azetidin-1-yl)methyl)pyrrolidin-1-yl)-2-(2,6-dioxopiperidin-3-yl)isoindoline-1,3-dione]: in test [1], the DC50 was under 10 nM and the Dmax is over 90%. The pIC50 in test [2] (MINO) is over 6.00. The pIC50 in test [3] was over 6.00.

With `Nc1ncnc2c1c(-c1ccc(Oc3ccccc3)cc1)nn2C1CCN(CC2CN(CC3CCN(c4ccc5c(c4)CN(C4CCC(=O)NC4=O)C5=O)C3)C2)CC1` (stereo not drawn) [Compound 444, 3-(5-(3-((3-((4-(4-amino-3-(4-phenoxyphenyl)-1H-pyrazolo[3,4-d]pyrimidin-1-yl)piperidin-1-yl)methyl)azetidin-1-yl)methyl)pyrrolidin-1-yl)-1-oxoisoindolin-2-yl)piperidine-2,6-dione], in test [1], the DC50 is under 10 nM and the Dmax was over 90%. In addition, in test [2] (MINO), the pIC50 was over 6.00. Further, the pIC50 in test [3] was over 6.00.

On to `Nc1ncnc2c1c(-c1ccc(Oc3ccccc3)cc1)nn2C1CCN(CC2CCN(CC3CCN(c4ccc5c(c4)C(=O)N(C4CCC(=O)NC4=O)C5=O)CC3)C2)CC1` (stereo not drawn) [Compound 445, 5-(4-((3-((4-(4-amino-3-(4-phenoxyphenyl)-1H-pyrazolo(3,4-d)pyrimidin-1-yl)piperidin-1-yl)methyl)pyrrolidin-1-yl)methyl)piperidin-1-yl)-2-(2,6-dioxopiperidin-3-yl)isoindoline-1,3-dione], for which, in test [1], the “degradation of BTK protein” value was “dose-dependent degradation”, the DC50 is 10 to 50 nM and the Dmax was over 90%. Moreover, the pIC50 in test [2] (MINO) was 5.00 to 6.00. Moreover, the pIC50 in test [3] was 5.00 to 6.00.

Consider `Nc1ncnc2c1c(-c1ccc(Oc3ccccc3)cc1)nn2C1CCN(C[C@H]2CCN(CC3CCN(c4ccc5c(c4)C(=O)N(C4CCC(=O)NC4=O)C5=O)CC3)C2)CC1` (stereo partly drawn) [Compound 445a, 5-(4-(((R)-3-((4-(4-amino-3-(4-phenoxyphenyl)-1H-pyrazolo[3,4-d]pyrimidin-1-yl)piperidin-1-yl)methyl)pyrrolidin-1-yl)methyl)piperidin-1-yl)-2-(2,6-dioxopiperidin-3-yl)isoindoline-1,3-dione], for which, in test [1], the DC50 is 10 to 50 nM and the Dmax is over 90%. Moreover, the pIC50 in test [2] (MINO) was 5.00 to 6.00. The pIC50 in test [3] was 5.00 to 6.00.

Consider `Nc1ncnc2c1c(-c1ccc(Oc3ccccc3)cc1)nn2C1CCN(C[C@@H]2CCN(CC3CCN(c4ccc5c(c4)C(=O)N(C4CCC(=O)NC4=O)C5=O)CC3)C2)CC1` (stereo partly drawn) [Compound 445b, 5-(4-(((S)-3-((4-(4-amino-3-(4-phenoxyphenyl)-1H-pyrazolo[3,4-d]pyrimidin-1-yl)piperidin-1-yl)methyl)pyrrolidin-1-yl)methyl)piperidin-1-yl)-2-(2,6-dioxopiperidin-3-yl)isoindoline-1,3-dione], for which, in test [1], the DC50 fell in the range of 10 to 50 nM and the Dmax is over 90%. Besides, in test [2] (MINO), the pIC50 was 5.00 to 6.00. Further, the pIC50 in test [3] was 5.00 to 6.00.

As to `Nc1ncnc2c1c(-c1ccc(Oc3ccccc3)cc1)nn2C1CCN(CC2CCN(CC3CCN(c4ccc5c(c4)CN(C4CCC(=O)NC4=O)C5=O)CC3)C2)CC1` (stereo not drawn) [Compound 446, 3-(5-(4-((3-((4-(4-amino-3-(4-phenoxyphenyl)-1H-pyrazolo(3,4-d)pyrimidin-1-yl)piperidin-1-yl)methyl)pyrrolidin-1-yl)methyl)piperidin-1-yl)-1-oxoisoindolin-2-yl)piperidine-2,6-dione], in test [1], the “degradation of BTK protein” value was “dose-dependent degradation”, the DC50 is 10 to 50 nM and the Dmax is over 90%. Besides, the pIC50 in test [2] was 5.00 to 6.00. In addition, the pIC50 in test [3] was 5.00 to 6.00.

Consider `Nc1ncnc2c1c(-c1ccc(Oc3ccccc3)cc1)nn2C1CCN(C[C@H]2CCN(CC3CCN(c4ccc5c(c4)CN(C4CCC(=O)NC4=O)C5=O)CC3)C2)CC1` (stereo partly drawn) [Compound 446a, 3-(5-(4-(((R)-3-((4-(4-amino-3-(4-phenoxyphenyl)-1H-pyrazolo[3,4-d]pyrimidin-1-yl)piperidin-1-yl)methyl)pyrrolidin-1-yl)methyl)piperidin-1-yl)-1-oxoisoindolin-2-yl)piperidine-2,6-dione], for which, in test [1], the DC50 was 10 to 50 nM and the Dmax was over 90%. In test [2] (MINO), the pIC50 was 5.00 to 6.00. In addition, the pIC50 in test [3] is 5.00 to 6.00.

For the compound `Nc1ncnc2c1c(-c1ccc(Oc3ccccc3)cc1)nn2C1CCN(C[C@@H]2CCN(CC3CCN(c4ccc5c(c4)CN(C4CCC(=O)NC4=O)C5=O)CC3)C2)CC1` (stereo partly drawn) [Compound 446b, 3-(5-(4-(((S)-3-((4-(4-amino-3-(4-phenoxyphenyl)-1H-pyrazolo[3,4-d]pyrimidin-1-yl)piperidin-1-yl)methyl)pyrrolidin-1-yl)methyl)piperidin-1-yl)-1-oxoisoindolin-2-yl)piperidine-2,6-dione], in test [1], the DC50 lay within 10 to 50 nM and the Dmax was over 90%. Further, the pIC50 in test [2] (MINO) is over 6.00. In test [3], the pIC50 was 5.00 to 6.00.

On to `Nc1ncnc2c1c(-c1ccc(Oc3ccccc3)cc1)nn2C1CCN(CC2CCN(CC3CCN(c4ccc5c(c4)C(=O)N(C4CCC(=O)NC4=O)C5=O)C3)C2)CC1` (stereo not drawn) [Compound 447, 5-(3-((3-((4-(4-amino-3-(4-phenoxyphenyl)-1H-pyrazolo(3,4-d)pyrimidin-1-yl)piperidin-1-yl)methyl)pyrrolidin-1-yl)methyl)pyrrolidin-1-yl)-2-(2,6-dioxopiperidin-3-yl)isoindoline-1,3-dione], for which, in test [1], the “degradation of BTK protein” value was “dose-dependent degradation”, the DC50 was 10 to 50 nM and the Dmax is over 90%. Moreover, the pIC50 in test [2] (MINO) is 5.00 to 6.00. Also, the pIC50 in test [3] is 5.00 to 6.00.

In the case of `Nc1ncnc2c1c(-c1ccc(Oc3ccccc3)cc1)nn2C1CCN(C[C@H]2CCN(C[C@H]3CCN(c4ccc5c(c4)C(=O)N(C4CCC(=O)NC4=O)C5=O)C3)C2)CC1` (stereo partly drawn) [Compound 447a, 5-((R)-3-(((R)-3-((4-(4-amino-3-(4-phenoxyphenyl)-1H-pyrazolo[3,4-d]pyrimidin-1-yl)piperidin-1-yl)methyl)pyrrolidin-1-yl)methyl)pyrrolidin-1-yl)-2-(2,6-dioxopiperidin-3-yl)isoindoline-1,3-dione], the DC50 in test [1] fell in the range of 10 to 50 nM. Further, the Dmax in test [1] was over 90%. Also, the pIC50 in test [2] (MINO) and in test [3] was 5.00 to 6.00 in each case.
